Laboratory results taken from PubChem BioAssay AID1963965 (Molecular Pharmacology Branch, DTP, NCI, 2024).

Test system: 996289-038-R-J1-PDC spheroid viability
Test: Anticancer human tumor 996289-038-R-J1-PDC patient-derived colon adenocarcinoma cell line growth inhibition [PI3K]
Settings: spheroids with HUVEC and MSC; for IC50: curve of first compound; for viability, T/C: stronger effect = lower value
How it was run: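 Tumor cells grown as multi-cell spheroids with HUVEC endothelial cells and MSC fibroblast-like stroma were treated with targeted agents combined with inavolisib, alpelisib, duvelisib or copanlisib. Doses fell in half-log steps from near clinical Cmax, else from 10 microM. Viability was measured.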

[1] = second compound 0.00316 µM, first compound 0.0316 µM
[2] = second compound 0.00316 µM, first compound 0.1 µM
[3] = second compound 0.00316 µM, first compound 0.316 µM
[4] = second compound 0.00316 µM, first compound 1 µM
[5] = second compound 0.00316 µM, first compound 3.16 µM
[6] = second compound 0.00316 µM, first compound 10 µM
[7] = second compound 0.01 µM, first compound 0.0316 µM
[8] = second compound 0.01 µM, first compound 0.1 µM
[9] = second compound 0.01 µM, first compound 0.316 µM
[10] = second compound 0.01 µM, first compound 1 µM
[11] = second compound 0.01 µM, first compound 3.16 µM
[12] = second compound 0.01 µM, first compound 10 µM
[13] = second compound 0.0316 µM, first compound 0.0316 µM
[14] = second compound 0.0316 µM, first compound 0.1 µM
[15] = second compound 0.0316 µM, first compound 0.316 µM
[16] = second compound 0.0316 µM, first compound 1 µM
[17] = second compound 0.0316 µM, first compound 3.16 µM
[18] = second compound 0.0316 µM, first compound 10 µM
[19] = second compound 0.1 µM, first compound 0.0316 µM
[20] = second compound 0.1 µM, first compound 0.1 µM
[21] = second compound 0.1 µM, first compound 0.316 µM
[22] = second compound 0.1 µM, first compound 1 µM
[23] = second compound 0.1 µM, first compound 3.16 µM
[24] = second compound 0.1 µM, first compound 10 µM
[25] = second compound 0.316 µM, first compound 0.0316 µM
[26] = second compound 0.316 µM, first compound 0.1 µM
[27] = second compound 0.316 µM, first compound 0.316 µM
[28] = second compound 0.316 µM, first compound 1 µM
[29] = second compound 0.316 µM, first compound 3.16 µM
[30] = second compound 0.316 µM, first compound 10 µM
[31] = second compound 1 µM, first compound 0.0316 µM
[32] = second compound 1 µM, first compound 0.1 µM
[33] = second compound 1 µM, first compound 0.316 µM
[34] = second compound 1 µM, first compound 1 µM
[35] = second compound 1 µM, first compound 3.16 µM
[36] = second compound 1 µM, first compound 10 µM
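Note: spheroids exposed to compounds for seven days before viability read.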
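Throughout, for viability, T/C: luminescence used as a proxy for viable cell amount; percent viability relative to DMSO vehicle control as 100%.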

`Cn1ncc(Cl)c1-c1cc(C(=O)NC(CN)Cc2cccc(F)c2)sc1Cl` (stereo unspecified) + COc1c(OCCCN2CCOCC2)ccc2c3n(c(=NC(=O)c4cnc(N)nc4)nc12)CCN3 gave an IC50 (second compound 0.00316 µM) of 5.06 µM, an IC50 (second compound 0.01 µM) of 2.84 µM and an IC50 (second compound 0.0316 µM) of 1.73 µM. The IC50 (second compound 0.1 µM) was 0.212 µM, the IC50 (second compound 0.316 µM) was under 0.0316 µM and the IC50 (second compound 1 µM) was under 0.0316 µM. It also gave a viability, T/C [1] of 99.4%, a viability, T/C [2] of 93.6% and a viability, T/C [3] of 82%. It also gave a viability, T/C [4] of 73.2%, a viability, T/C [5] of 56.8% and a viability, T/C [6] of 39.7%. The viability, T/C [7] was 92.4%, the viability, T/C [8] was 87.1% and the viability, T/C [9] was 74.2%. For the same compound, the viability, T/C [10] was 59.9%, the viability, T/C [11] was 54.8% and the viability, T/C [12] was 26.7%. The viability, T/C [13] was 81.6%, the viability, T/C [14] was 66.5% and the viability, T/C [15] was 70.9%. The viability, T/C [16] was 62%, the viability, T/C [17] was 37.6% and the viability, T/C [18] was 23.7%. It also gave a viability, T/C [19] of 60.3%, a viability, T/C [20] of 59.4% and a viability, T/C [21] of 44.6%. It also gave a viability, T/C [22] of 37.3%, a viability, T/C [23] of 31.3% and a viability, T/C [24] of 20.5%. It also gave a viability, T/C [25] of 34.8%, a viability, T/C [26] of 33% and a viability, T/C [27] of 32.8%. The viability, T/C [28] was 32.3%, the viability, T/C [29] was 30.5% and the viability, T/C [30] was 15.1%. It also gave a viability, T/C [31] of 18.3%, a viability, T/C [32] of 19.7% and a viability, T/C [33] of 17%. It also gave a viability, T/C [34] of 23.1%, a viability, T/C [35] of 20.1% and a viability, T/C [36] of 11%.
`CCCS(=O)(=O)Nc1ccc(F)c(C(=O)c2c[nH]c3ncc(-c4ccc(Cl)cc4)cc23)c1F` + CC(Nc1ccc2c(c1)OCCn1cc(N3C(=O)OCC3C(F)F)nc1-2)C(N)=O gave an IC50 (second compound 0.00316 µM) of 5.89 µM, an IC50 (second compound 0.01 µM) of 6.12 µM and an IC50 (second compound 0.0316 µM) of 5.81 µM. The IC50 (second compound 0.1 µM) was 5.11 µM, the IC50 (second compound 0.316 µM) was 4.38 µM and the IC50 (second compound 1 µM) was 1.67 µM. For the same compound, the viability, T/C [1] was 108%, the viability, T/C [2] was 89.7% and the viability, T/C [3] was 86.3%. The viability, T/C [4] was 96.7%, the viability, T/C [5] was 83.4% and the viability, T/C [6] was 21.2%. It also gave a viability, T/C [7] of 101%, a viability, T/C [8] of 95.8% and a viability, T/C [9] of 97.8%. For the same compound, the viability, T/C [10] was 101%, the viability, T/C [11] was 88% and the viability, T/C [12] was 21.4%. The viability, T/C [13] was 95%, the viability, T/C [14] was 98.5% and the viability, T/C [15] was 96.6%. The viability, T/C [16] was 99.4%, the viability, T/C [17] was 82.5% and the viability, T/C [18] was 20.6%. It also gave a viability, T/C [19] of 72.4%, a viability, T/C [20] of 71.8% and a viability, T/C [21] of 74.6%. The viability, T/C [22] was 73.4%, the viability, T/C [23] was 75.8% and the viability, T/C [24] was 16.9%. It also gave a viability, T/C [25] of 74.8%, a viability, T/C [26] of 74.3% and a viability, T/C [27] of 76.6%. The viability, T/C [28] was 68%, the viability, T/C [29] was 65.1% and the viability, T/C [30] was 15.1%. For the same compound, the viability, T/C [31] was 63.1%, the viability, T/C [32] was 72.3% and the viability, T/C [33] was 61.7%. For the same compound, the viability, T/C [34] was 52.1%, the viability, T/C [35] was 44.9% and the viability, T/C [36] was 12.1%.
`Cn1nccc1Nc1nccc(-c2ccn(C(CO)c3ccc(Cl)c(F)c3)c(=O)c2)n1` (stereo unspecified) + CC(Nc1ncnc2nc[nH]c12)c1cc2cccc(Cl)c2c(=O)n1-c1ccccc1 showed an IC50 (second compound 0.0316 µM) of over 10 µM, an IC50 (second compound 0.1 µM) of over 10 µM and an IC50 (second compound 0.316 µM) of over 10 µM. It also gave an IC50 (second compound 1 µM) of 8.64 µM, an IC50 (second compound 3.16 µM) of over 10 µM and an IC50 (second compound 10 µM) of 7.53 µM. The viability, T/C [13] was 86.6%, the viability, T/C [14] was 97.5% and the viability, T/C [15] was 95.5%. For the same compound, the viability, T/C [16] was 90.1%, the viability, T/C [17] was 84.6% and the viability, T/C [18] was 61.5%. It also gave a viability, T/C [19] of 108%, a viability, T/C [20] of 89.4% and a viability, T/C [21] of 120%. For the same compound, the viability, T/C [22] was 92.8%, the viability, T/C [23] was 81.7% and the viability, T/C [24] was 53.1%. It also gave a viability, T/C [25] of 105%, a viability, T/C [26] of 90.8% and a viability, T/C [27] of 105%. For the same compound, the viability, T/C [28] was 93.3%, the viability, T/C [29] was 79.6% and the viability, T/C [30] was 55.6%. The viability, T/C [31] was 91.7%, the viability, T/C [32] was 101% and the viability, T/C [33] was 87.9%. The viability, T/C [34] was 94.4%, the viability, T/C [35] was 76.9% and the viability, T/C [36] was 46.1%. For the same compound, the viability, T/C (second compound 3.16 µM, first compound 0.0316 µM) was 88.1%, the viability, T/C (second compound 3.16 µM, first compound 0.1 µM) was 87.2% and the viability, T/C (second compound 3.16 µM, first compound 0.316 µM) was 99.7%. It also gave a viability, T/C (second compound 3.16 µM, first compound 1 µM) of 86.1%, a viability, T/C (second compound 3.16 µM, first compound 3.16 µM) of 70.3% and a viability, T/C (second compound 3.16 µM, first compound 10 µM) of 57.1%. It also gave a viability, T/C (second compound 10 µM, first compound 0.0316 µM) of 82.7%, a viability, T/C (second compound 10 µM, first compound 0.1 µM) of 88.5% and a viability, T/C (second compound 10 µM, first compound 0.316 µM) of 91.1%. For the same compound, the viability, T/C (second compound 10 µM, first compound 1 µM) was 81.7%, the viability, T/C (second compound 10 µM, first compound 3.16 µM) was 70.8% and the viability, T/C (second compound 10 µM, first compound 10 µM) was 43.3%.
